From patent US20230127944A1, “BROAD-SPECTRUM CARBAPENEMS” (priority 2019, published 2023)

Assays:
[1] = tested on: Methicillin Resistant S. aureus (MRSA) clinical isolates; assay: expanded MIC profiling, MRSA clinical isolates; assay type: cell-based; details: Staphylococcus aureus
Experimental: (§1) To evaluate the activity of selected example compounds against clinical isolates of target species, standard cell-based broth microdilution MIC assays were employed. A panel of 20 clinical isolates of P. aeruginosa and 20 clinical isolates of Methicillin Resistant S. aureus (MRSA) from Lankenau Medical Center (Wynnewood, Pa.) were used. In the set of P. aeruginosa isolates, the compounds were also tested in combination with a β-lactamase inhibitor (taniborbactam), to evaluate the potential benefit of inhibiting β-lactamase enzymes. The assay was conducted in Cation Adjusted Mueller Hinton Broth (CAMHB, BD #212322, BD Diagnostic Systems, Sparks, Md.). Bacteria strains were grown for 3-5 hours in CAMHB. Compounds were added to a microtiter plate in 2-fold serial dilutions in CAMHB. For plates receiving β-lactamase inhibitor, taniborbactam was added to obtain a final fixed concentration of 4 μg/mL. Once the test articles were added, the plates were inoculated according to CLSI broth microdilution method. After inoculation, the plates were incubated for 16-20 hours at 37° C. then the Minimal Inhibitory Concentration (MIC) of the test compound is determined visually. Values for concentration required to inhibit growth of […] (MIC50) and 90% (MIC90) of isolates were determined.

[2] = tested on: P. aeruginosa clinical isolates; assay: expanded MIC profiling, P. aeruginosa clinical isolates; assay type: cell-based; details: Pseudomonas aeruginosa
Experimental: as §1

[3] = panel of S. aureus (MRSA) isolates of Table 5
[4] = panel of 20 P. aeruginosa clinical isolates

MIC ([1]; ATCC 33591 / MRSA, S. aureus ATCC-33591): 32 µg/mL | MIC ([1]; MRSA, S. aureus clinical isolate LH-SA3): 4 µg/mL | MIC ([1]; MRSA, S. aureus clinical isolate LH-SA9): 4 µg/mL | MIC ([1]; MRSA, S. aureus clinical isolate LH-SA23): 4 µg/mL | MIC ([1]; MRSA, S. aureus clinical isolate LH-SA24): 4 µg/mL | MIC ([1]; MRSA, S. aureus clinical isolate LH-SA26): 4 µg/mL | MIC ([1]; MRSA, S. aureus clinical isolate LH-SA29): 16 µg/mL | MIC ([1]; MRSA, S. aureus clinical isolate LH-SA33): 4 µg/mL | MIC ([1]; MRSA, S. aureus clinical isolate LH-SA34): 8 µg/mL | MIC ([1]; MRSA, S. aureus clinical isolate LH-SA37): 4 µg/mL | MIC ([1]; MRSA, S. aureus clinical isolate LH-SA38): 32 µg/mL | MIC ([1]; MRSA, S. aureus clinical isolate LH-SA39): 4 µg/mL | MIC ([1]; MRSA, S. aureus clinical isolate LH-SA40): 4 µg/mL | MIC ([1]; MRSA, S. aureus clinical isolate LH-SA41): 4 µg/mL | MIC ([1]; MRSA, S. aureus clinical isolate LH-SA42): 8 µg/mL | MIC ([1]; MRSA, S. aureus clinical isolate LH-SA44): 8 µg/mL | MIC ([1]; MRSA, S. aureus clinical isolate LH-SA45): 16 µg/mL | MIC ([1]; MRSA, S. aureus clinical isolate LH-SA48): 4 µg/mL | MIC ([1]; MRSA, S. aureus clinical isolate LH-SA49): 4 µg/mL | MIC ([1]; MRSA, S. aureus clinical isolate LH-SA50): 4 µg/mL | MIC50 [1, 3]: 4 µg/mL | MIC90 [1, 3]: 16 µg/mL | MIC ([2]; P. aeruginosa clinical isolate Lankenau 11): 1 µg/mL | MIC ([2]; P. aeruginosa clinical isolate Lankenau 12): 0.5 µg/mL | MIC ([2]; P. aeruginosa clinical isolate Lankenau 13): 1 µg/mL | MIC ([2]; P. aeruginosa clinical isolate Lankenau 14): 0.5 µg/mL | MIC ([2]; P. aeruginosa clinical isolate Lankenau 15): 1 µg/mL | MIC ([2]; P. aeruginosa clinical isolate Lankenau 16): 0.5 µg/mL | MIC ([2]; P. aeruginosa clinical isolate Lankenau 17): 1 µg/mL | MIC ([2]; P. aeruginosa clinical isolate Lankenau 18): 0.5 µg/mL | MIC ([2]; P. aeruginosa clinical isolate Lankenau 19): 1 µg/mL | MIC ([2]; P. aeruginosa clinical isolate Lankenau 20): 0.5 µg/mL | MIC ([2]; P. aeruginosa clinical isolate Lankenau 21): 1 µg/mL | MIC ([2]; P. aeruginosa clinical isolate Lankenau 22): 0.5 µg/mL | MIC ([2]; P. aeruginosa clinical isolate Lankenau 23): 0.5 µg/mL | MIC ([2]; P. aeruginosa clinical isolate Lankenau 24): 4 µg/mL | MIC ([2]; P. aeruginosa clinical isolate Lankenau 25): 0.5 µg/mL | MIC ([2]; P. aeruginosa clinical isolate Lankenau 26): < 0.25 µg/mL | MIC ([2]; P. aeruginosa clinical isolate Lankenau 27): 0.5 µg/mL | MIC ([2]; P. aeruginosa clinical isolate Lankenau 28): 0.5 µg/mL | MIC ([2]; P. aeruginosa clinical isolate Lankenau 29): 0.5 µg/mL | MIC ([2]; P. aeruginosa clinical isolate Lankenau 30): 0.5 µg/mL | MIC50 [2, 4]: 0.5 µg/mL | MIC90 [2, 4]: 1 µg/mL
SMILES: C[C@@H](O)[C@H]1C(=O)N2C(C(=O)O)=C(S[C@@H]3CN[C@H](C(=O)N(C)C)C3)[C@H](C)[C@H]12 [Meropenem, reference compound]
